Data as given in ChEMBL document CHEMBL4837257, “Discovery of the Oxadiazine FRM-024: A Potent CNS-Penetrant Gamma Secretase Modulator” (J Med Chem, 2021).

Tests used:
Gamma-secretase = assay: (§1) Modulation of gamma-secretase in human H4 cells expressing human wild type APP751 assessed as reduction in amyloid beta42 level incubated overnight by ELISA; format: cell-based
[1] = Unbound clearance in human hepatocytes; format: ADME, cell-based, Hepatocyte
[2] = target: Gamma-secretase (Homo sapiens) (UniProt Q96BI3+Q9NZ42+Q8WW43+P49768+Q92542+P49810); assay: as §1; format: cell-based; conditions: filed as modulator
[3] = Ratio of free drug concentration in mouse brain to EC90 for modulation of gamma secretase in human H4 cells expressing human wild type APP751 assessed as reduction in amyloid beta42 level incubated overnight by ELISA; format: ADME, cell-based
Mus musculus = assay: In vivo modulation of gamma secretase in mouse assessed as reduction in Abeta42 levels in brain at 30 mg/kg, po measured after 6 hrs relative to control; format: functional; design: scale not given: the % may be the effect or the level left
[4] = Ratio of free drug concentration in rat brain to EC90 for modulation of gamma secretase in human H4 cells expressing human wild type APP751 assessed as reduction in amyloid beta42 level incubated overnight by ELISA; format: ADME, cell-based
Rattus norvegicus [5] = assay: In vivo modulation of gamma secretase in rat assessed as reduction in Abeta42 levels in brain at 30 mg/kg, po measured after 6 hrs by ELISA relative to control; format: functional; design: scale not given: the % may be the effect or the level left
Rattus norvegicus [6] = assay: In vivo modulation of gamma secretase in rat assessed as reduction in Abeta42 levels in CSF at 30 mg/kg, po measured after 6 hrs by ELISA relative to control; format: functional, Cerebrospinal fluid; design: scale not given: the % may be the effect or the level left

## COc1nc(C2=NOC(C)(C)C(c3ccc(Cl)cc3)N2)ccc1-n1cnc(C)c1 (stereo not given)
Gamma-secretase
  EC50: 23 nM
[1]
  CL free: 15 mL/min/kg

## COc1nc(C2=NOCC(c3ccc(F)c(C(F)(F)F)c3)N2)ccc1-n1cnc(C)c1 (stereo not given)
[2]
  EC90: 268 nM
Gamma-secretase
  EC50: 19 nM
[3]
  Ratio: 0.7
Mus musculus
  Activity: 41%

## COc1nc(C2=NOCC(c3cccc(C4CC4)c3)N2)ccc1-n1cnc(C)c1 (stereo not given)
Gamma-secretase
  EC50: 23 nM
[1]
  CL free: 29 mL/min/kg

## COc1nc(C2=NOCC(c3ccc(C4CC4)cc3)N2)ccc1-n1cnc(C)c1 (stereo not given)
Gamma-secretase
  EC50: 39 nM
[1]
  CL free: 208 mL/min/kg

## COc1nc(C2=NOCC(c3ccc(F)cc3)N2)ccc1-n1cnc(C)c1 (stereo not given)
Gamma-secretase
  EC50: 60 nM

## COc1nc(C2=NOCC(c3ccccc3)N2)ccc1-n1cnc(C)c1 (stereo in doubt; 7)
Gamma-secretase
  EC50: 2000 nM

## COc1nc(C2=NOC(C)C(c3cccc(Cl)c3)N2)ccc1-n1cnc(C)c1 (stereo not given)
Gamma-secretase
  EC50: 14 nM
[1]
  CL free: 19 mL/min/kg

## COc1nc(C2=NOCC(c3cccc(Cl)c3)N2)ccc1-n1cnc(C)c1 (stereo not given)
Gamma-secretase
  EC50: 26 nM
[1]
  CL free: 15 mL/min/kg

## COc1nc(C2=NOCC(c3ccc(C)c(Cl)c3)N2)ccc1-n1cnc(C)c1 (stereo not given)
Gamma-secretase
  EC50: 14 nM
[1]
  CL free: 422 mL/min/kg

## COc1nc(C2=NOCC(c3cccc(C#N)c3)N2)ccc1-n1cnc(C)c1 (stereo not given)
Gamma-secretase
  EC50: 214 nM

## COc1nc(C2=NOCC(c3ccccc3)N2)ccc1-n1cnc(C)c1 (stereo in doubt; 7a)
Gamma-secretase
  EC50: 97 nM
[1]
  CL free: 21 mL/min/kg

## COc1nc(C2=NOCC(c3ccc(Cl)c(C)c3)N2)ccc1-n1cnc(C)c1 (stereo not given)
[2]
  EC90: 127 nM
Gamma-secretase
  EC50: 10 nM
[1]
  CL free: 70 mL/min/kg
[3]
  Ratio: 1.3
Mus musculus
  Activity: 30%

## COc1nc(C2=NOC(C)C(c3ccc(Cl)c(F)c3)N2)ccc1-n1cnc(C)c1 (stereo not given)
[2]
  EC90: 97 nM
Gamma-secretase
  EC50: 8 nM
[1]
  CL free: 1 mL/min/kg
[3]
  Ratio: 2.6
Mus musculus
  Activity: 43%
[4]
  Ratio: 2.4
Rattus norvegicus [5]
  Activity: 44%
Rattus norvegicus [6]
  Activity: 73%

## COc1nc(C2=NOCC(c3ccc(F)c(Cl)c3)N2)ccc1-n1cnc(C)c1 (stereo not given)
[2]
  EC90: 278 nM
Gamma-secretase
  EC50: 23 nM
[1]
  CL free: 13 mL/min/kg
[3]
  Ratio: 1.5
Mus musculus
  Activity: 30%

## COc1nc(C2=NOCC(c3ccc(C)cc3)N2)ccc1-n1cnc(C)c1 (stereo not given)
Gamma-secretase
  EC50: 74 nM
[1]
  CL free: 135 mL/min/kg

## COc1nc(C2=NOCC(c3cc(Cl)cc(Cl)c3)N2)ccc1-n1cnc(C)c1 (stereo not given)
[2]
  EC90: 104 nM
Gamma-secretase
  EC50: 10 nM
[1]
  CL free: 85 mL/min/kg
[3]
  Ratio: 0.8
Mus musculus
  Activity: 23%

## COc1nc(C2=NOC(C)C(c3ccc(Cl)c(Cl)c3)N2)ccc1-n1cnc(C)c1 (stereo not given)
Gamma-secretase
  EC50: 5 nM
[1]
  CL free: 20 mL/min/kg

## COc1nc(C2=NOCC(c3ccc(C(F)(F)F)c(F)c3)N2)ccc1-n1cnc(C)c1 (stereo not given)
Gamma-secretase
  EC50: 21 nM
[1]
  CL free: 62 mL/min/kg

## COc1nc(C2=NOCC(c3ccc(Cl)c(Cl)c3)N2)ccc1-n1cnc(C)c1 (stereo not given)
[2]
  EC90: 97 nM
Gamma-secretase
  EC50: 10 nM
[3]
  Ratio: 0.5
Mus musculus
  Activity: 37%

## COc1nc(C2=NOC(C)C(c3ccc(Cl)cc3)N2)ccc1-n1cnc(C)c1 (stereo not given)
[2]
  EC90: 187 nM
Gamma-secretase
  EC50: 16 nM
[1]
  CL free: 12 mL/min/kg
[3]
  Ratio: 4.5
Mus musculus
  Activity: 47%
[4]
  Ratio: 0.3
Rattus norvegicus [5]
  Activity: 41%
Rattus norvegicus [6]
  Activity: 84%

## COc1nc(C2=NOC(C)(C)C(c3ccccc3)N2)ccc1-n1cnc(C)c1 (stereo not given)
Gamma-secretase
  EC50: 75 nM
[1]
  CL free: 5 mL/min/kg

## COc1nc(C2=NOCC(c3ccc(Cl)c(C4CC4)c3)N2)ccc1-n1cnc(C)c1 (stereo not given)
Gamma-secretase
  EC50: 13 nM
[1]
  CL free: 274 mL/min/kg

## COc1cccc(C2CON=C(c3ccc(-n4cnc(C)c4)c(OC)n3)N2)c1 (stereo not given)
Gamma-secretase
  EC50: 197 nM

## COc1ccc(C2CON=C(c3ccc(-n4cnc(C)c4)c(OC)n3)N2)cc1 (stereo not given)
Gamma-secretase
  EC50: 97 nM

## COc1nc(C2=NOCC(c3ccc(C#N)cc3)N2)ccc1-n1cnc(C)c1 (stereo not given)
Gamma-secretase
  EC50: 450 nM

## COc1nc(C2=NOCC(c3ccc(C(C)(C)C)cc3)N2)ccc1-n1cnc(C)c1 (stereo not given)
Gamma-secretase
  EC50: 10 nM
[1]
  CL free: 320 mL/min/kg

## COc1nc(C2=NOCC(c3ccc(C4CC4)c(Cl)c3)N2)ccc1-n1cnc(C)c1 (stereo not given)
Gamma-secretase
  EC50: 13 nM
[1]
  CL free: 1147 mL/min/kg

## COc1nc(C2=NOCC(c3ccc(C(F)(F)F)cc3)N2)ccc1-n1cnc(C)c1 (stereo not given)
[2]
  EC90: 407 nM
Gamma-secretase
  EC50: 34 nM
[1]
  CL free: 12 mL/min/kg
[3]
  Ratio: 1.1
Mus musculus
  Activity: 36%

## COc1nc(C2=NOCC(c3ccc(C(F)(F)F)c(Cl)c3)N2)ccc1-n1cnc(C)c1 (stereo not given)
Gamma-secretase
  EC50: 10 nM

## COc1nc(C2=NOCC(c3ccc(Cl)c(C(F)(F)F)c3)N2)ccc1-n1cnc(C)c1 (stereo not given)
Gamma-secretase
  EC50: 8 nM
[1]
  CL free: 6 mL/min/kg

## COc1nc(C2=NOC[C@H](c3cc4ccccc4o3)N2)ccc1-n1cnc(C)c1
[2]
  EC90: 383 nM
Gamma-secretase
  EC50: 35 nM
[1]
  CL free: 51 mL/min/kg
[3]
  Ratio: 1.1
Mus musculus
  Activity: 43%
[4]
  Ratio: 0.7
Rattus norvegicus [5]
  Activity: 30%
Rattus norvegicus [6]
  Activity: 58%

## COc1nc(C2=NOCC(c3cccc(C(F)(F)F)c3)N2)ccc1-n1cnc(C)c1 (stereo not given)
Gamma-secretase
  EC50: 43 nM

## COc1nc(C2=NOCC(c3ccc(Cl)cc3)N2)ccc1-n1cnc(C)c1 (stereo not given)
[2]
  EC90: 389 nM
Gamma-secretase
  EC50: 37 nM
[1]
  CL free: 2 mL/min/kg
[3]
  Ratio: 0.6
Mus musculus
  Activity: 26%

## COc1nc(C2=NOCC(c3ccc(Cl)c(F)c3)N2)ccc1-n1cnc(C)c1 (stereo not given)
[2]
  EC90: 246 nM
Gamma-secretase
  EC50: 23 nM
[1]
  CL free: 32 mL/min/kg
[3]
  Ratio: 1.7
Mus musculus
  Activity: 28%
